Data: ChEMBL document CHEMBL1141575, “Preparation and in vitro biological evaluation of tetrapyrrole ethanolamide derivatives as potential anticancer agents” (Bioorg Med Chem Lett, 2008)

Columns and labels:
[1] = system: Raji; assay: Survival of human Raji cells at 1 uM under deem light after 96 hrs by MTT assay relative to control; assay type: functional; conditions: read-out: Survival
[2] = Survival of human H209 cells at 1 uM under deem light after 96 hrs by MTT assay relative to control; assay type: functional; conditions: NCI-H209, 96 h, read-out: Survival
[3] = Survival of human 2780.9S cells at 1 uM under deem light after 96 hrs by MTT assay relative to control; assay type: functional; conditions: read-out: Survival
[4] = system: SiHa; assay: Cytotoxicity against human SIHA cells under deem light after 96 hrs by MTT assay; assay type: functional, cell-based
[5] = Survival of human H209 cells at 0.1 uM under deem light after 96 hrs by MTT assay relative to control; assay type: functional; conditions: NCI-H209, 96 h, read-out: Survival
[6] = system: Raji; assay: Survival of human Raji cells at 10 uM under deem light after 96 hrs by MTT assay relative to control; assay type: functional; conditions: read-out: Survival
[7] = system: NCI-H69; assay: Survival of human H69 cells at 50 uM under deem light after 96 hrs by MTT assay relative to control; assay type: functional; conditions: NCI-H69, 96 h, read-out: Survival
[8] = system: NCI-H69; assay: Survival of human H69 cells at 0.1 uM under deem light after 96 hrs by MTT assay relative to control; assay type: functional; conditions: NCI-H69, 96 h, read-out: Survival
[9] = Survival of human H209 cells at 10 uM under deem light after 96 hrs by MTT assay relative to control; assay type: functional; conditions: NCI-H209, 96 h, read-out: Survival
[10] = system: Raji; assay: Survival of human Raji cells at 0.1 uM under deem light after 96 hrs by MTT assay relative to control; assay type: functional; conditions: read-out: Survival
[11] = system: SiHa; assay: Survival of human SIHA cells at 50 uM under deem light after 96 hrs by MTT assay relative to control; assay type: functional; conditions: read-out: Survival
[12] = system: SiHa; assay: Survival of human SIHA cells at 1 uM under deem light after 96 hrs by MTT assay relative to control; assay type: functional; conditions: read-out: Survival
[13] = Photohemolysis in human RBC at 375 nM under exposure to light for 10 mins; assay type: ADME, cell-based, Erythrocyte; conditions: human red blood cells, read-out: Activity
[14] = system: NCI-H69; assay: Survival of human H69 cells at 1 uM under deem light after 96 hrs by MTT assay relative to control; assay type: functional; conditions: NCI-H69, 96 h, read-out: Survival
[15] = system: NCI-H69; assay: Survival of human H69 cells at 100 uM under deem light after 96 hrs by MTT assay relative to control; assay type: functional; conditions: NCI-H69, 96 h, read-out: Survival
[16] = Survival of human 2780.9S cells at 0.1 uM under deem light after 96 hrs by MTT assay relative to control; assay type: functional; conditions: read-out: Survival
[17] = Photohemolysis in human RBC in absence of light; assay type: ADME, cell-based; conditions: erythrocyte
[18] = system: HeLa; assay: Survival of human HeLa cells at 100 uM under deem light after 96 hrs by MTT assay relative to control; assay type: functional; conditions: read-out: Survival
[19] = system: HeLa; assay: Survival of human HeLa cells at 10 uM under deem light after 96 hrs by MTT assay relative to control; assay type: functional; conditions: read-out: Survival
[20] = Survival of human MDA-MB cells at 1 uM under deem light after 96 hrs by MTT assay relative to control; assay type: functional; conditions: read-out: Survival
[21] = Cytotoxicity against human 2780.9S cells under deem light after 96 hrs by MTT assay; assay type: functional, cell-based
[22] = system: K562; assay: Survival of human K562 cells at 10 uM under deem light after 96 hrs by MTT assay relative to control; assay type: functional; conditions: K562, 96 h, read-out: Survival
[23] = system: Raji; assay: Cytotoxicity against human Raji cells under deem light after 96 hrs by MTT assay; assay type: functional, cell-based
[24] = system: K562; assay: Survival of human K562 cells at 100 uM under deem light after 96 hrs by MTT assay relative to control; assay type: functional; conditions: K562, 96 h, read-out: Survival
[25] = Photohemolysis in human RBC assessed as concentration required to 50% hemolysis under light exposure for 10 mins; assay type: ADME, cell-based, Erythrocyte; conditions: human red blood cells, read-out: Activity
[26] = system: HeLa; assay: Survival of human HeLa cells at 0.1 uM under deem light after 96 hrs by MTT assay relative to control; assay type: functional; conditions: read-out: Survival
[27] = system: NCI-H69; assay: Cytotoxicity against human H69 cells under deem light after 96 hrs by MTT assay; assay type: functional, cell-based; conditions: NCI-H69, 96 h
[28] = Survival of human H209 cells at 100 uM under deem light after 96 hrs by MTT assay relative to control; assay type: functional; conditions: NCI-H209, 96 h, read-out: Survival
[29] = system: HeLa; assay: Survival of human HeLa cells at 1 uM under deem light after 96 hrs by MTT assay relative to control; assay type: functional; conditions: read-out: Survival
[30] = system: HeLa; assay: Survival of human HeLa cells at 50 uM under deem light after 96 hrs by MTT assay relative to control; assay type: functional; conditions: read-out: Survival
[31] = Survival of human MDA-MB cells at 10 uM under deem light after 96 hrs by MTT assay relative to control; assay type: functional; conditions: read-out: Survival
[32] = system: K562; assay: Survival of human K562 cells at 50 uM under deem light after 96 hrs by MTT assay relative to control; assay type: functional; conditions: K562, 96 h, read-out: Survival
[33] = system: K562; assay: Cytotoxicity against human K562 cells under deem light after 96 hrs by MTT assay; assay type: functional, cell-based; conditions: K562, 96 h
[34] = Photohemolysis in human RBC assessed as concentration required to 50% hemolysis under light exposure for 5 mins; assay type: ADME, cell-based, Erythrocyte; conditions: human red blood cells, read-out: Activity
[35] = Survival of human 2780.9S cells at 50 uM under deem light after 96 hrs by MTT assay relative to control; assay type: functional; conditions: read-out: Survival
[36] = Cytotoxicity against human MDA-MB cells under deem light after 96 hrs by MTT assay; assay type: functional, cell-based
[37] = system: K562; assay: Survival of human K562 cells at 0.1 uM under deem light after 96 hrs by MTT assay relative to control; assay type: functional; conditions: K562, 96 h, read-out: Survival
[38] = Survival of human MDA-MB cells at 100 uM under deem light after 96 hrs by MTT assay relative to control; assay type: functional; conditions: read-out: Survival
[39] = system: Daudi; assay: Cytotoxicity against human Daudi cells under deem light after 96 hrs by MTT assay; assay type: functional, cell-based
[40] = Survival of human 2780.9S cells at 10 uM under deem light after 96 hrs by MTT assay relative to control; assay type: functional; conditions: read-out: Survival
[41] = system: K562; assay: Survival of human K562 cells at 1 uM under deem light after 96 hrs by MTT assay relative to control; assay type: functional; conditions: K562, 96 h, read-out: Survival
[42] = Survival of human H209 cells at 50 uM under deem light after 96 hrs by MTT assay relative to control; assay type: functional; conditions: NCI-H209, 96 h, read-out: Survival
[43] = system: Raji; assay: Survival of human Raji cells at 50 uM under deem light after 96 hrs by MTT assay relative to control; assay type: functional; conditions: read-out: Survival
[44] = system: Raji; assay: Survival of human Raji cells at 100 uM under deem light after 96 hrs by MTT assay relative to control; assay type: functional; conditions: read-out: Survival
[45] = system: SiHa; assay: Survival of human SIHA cells at 100 uM under deem light after 96 hrs by MTT assay relative to control; assay type: functional; conditions: read-out: Survival
[46] = Survival of human MDA-MB cells at 50 uM under deem light after 96 hrs by MTT assay relative to control; assay type: functional; conditions: read-out: Survival
[47] = Survival of human MDA-MB cells at 0.1 uM under deem light after 96 hrs by MTT assay relative to control; assay type: functional; conditions: read-out: Survival
[48] = system: NCI-H69; assay: Survival of human H69 cells at 10 uM under deem light after 96 hrs by MTT assay relative to control; assay type: functional; conditions: NCI-H69, 96 h, read-out: Survival
[49] = Survival of human 2780.9S cells at 100 uM under deem light after 96 hrs by MTT assay relative to control; assay type: functional; conditions: read-out: Survival
[50] = system: SiHa; assay: Survival of human SIHA cells at 10 uM under deem light after 96 hrs by MTT assay relative to control; assay type: functional; conditions: read-out: Survival
[51] = system: HeLa; assay: Cytotoxicity against human HeLa cells under deem light after 96 hrs by MTT assay; assay type: functional, cell-based

`CC1=C(CCC(=O)O)c2cc3nc(cc4[nH]c(cc5[nH]c(cc1n2)c(C)c5C(C)O)c(C)c4C(C)O)C(C)=C3CCC(=O)O` (stereo unspecified) [HAEMAPORPHYRIN] showed a viability at 1 µM [1] of 89.6%, a viability at 1 µM [2] of 94% and a viability at 1 µM [3] of 82.5%. The IC50 [4] was 56 µM, the viability at 0.1 µM [5] was 91.4% and the viability at 10 µM [6] was 71.4%. The viability at 50 µM [7] was 82.9%, the viability at 0.1 µM [8] was 92.2% and the viability at 10 µM [9] was 99.5%. It also gave a viability at 0.1 µM [10] of 92.1%, a viability at 50 µM [11] of 52.6% and a viability at 1 µM [12] of 92.2%. The hemolysis at 10 min, 0.375 µM [13] was 100%, the viability at 1 µM [14] was 105% and the viability at 100 µM [15] was 62.6%. The viability at 0.1 µM [16] was 102%, the Activity [17] was “Non-toxic” and the viability at 100 µM [18] was 104%. It also gave a viability at 10 µM [19] of 113%, a viability at 1 µM [20] of 115% and an IC50 [21] greater than 100 µM. For the same molecule, the viability at 10 µM [22] was 82.5%, the IC50 [23] was 57 µM and the viability at 100 µM [24] was 32.1%. For the same molecule, the HC50 at 10 min [25] was 460 nM, the viability at 0.1 µM [26] was 85.8% and the IC50 [27] was 70 µM. For the same molecule, the viability at 100 µM [28] was 84.6%, the viability at 1 µM [29] was 103% and the viability at 50 µM [30] was 109%. The viability at 10 µM [31] was 104%, the viability at 50 µM [32] was 55.9% and the IC50 [33] was 44 µM. The HC50 at 5 min [34] was 170 nM, the viability at 50 µM [35] was 81.4% and the IC50 [36] was greater than 100 µM. For the same molecule, the viability at 0.1 µM [37] was 68.7%, the viability at 100 µM [38] was 82.8% and the IC50 [39] was 15 µM. The viability at 10 µM [40] was 75.5%, the viability at 1 µM [41] was 82.7% and the viability at 50 µM [42] was 93.3%. It also gave a viability at 50 µM [43] of 27.6%, a viability at 100 µM [44] of 17% and a viability at 100 µM [45] of 44.5%. The viability at 50 µM [46] was 107%, the viability at 0.1 µM [47] was 136% and the viability at 10 µM [48] was 104%. It also gave a viability at 100 µM [49] of 43.8%, a viability at 10 µM [50] of 81.6% and an IC50 [51] of 71 µM.
